Results taken from US10179816B2, “Pharmaceutical compositions comprising an antibody which binds the human anti-Müllerian hormone receptor type II” (LABORATOIRE FRANCAIS DU FRACTIONNEMENT DES BIOTECHNOLOGIES, priority 2011, dated 2019).
“And” between values parts separate entries of the source, which are not always exact repeats. Identical values can stand only once. “Also recorded” adds a separate entry of the source. Like-named read-outs stand apart in the source and are kept apart here.

Legend:
[1] = system: Cov434-AMHRII Asc1a5 tumour cells;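 note: control mice received NaCl solution, survival endpoint was euthanasia once tumour volume hit 2000 mm^3 or on ethical grounds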
Description: A solution of NaCl was used as the control.
(§1) The animals were sacrificed when the tumour volumes reached 2000 mm^3 or for ethical reasons. The curves of mean values and median values as well as the statistical analyses were stopped when 20% of the mice in the group were dead.

[2] = system: Cov434-AMHRII Asc1a5 tumour cells (a cell line of human ovarian cancer); test: Anti-tumour activity of 3C23K alone or with paclitaxel in Cov434-AMHRII Asc1a5 xenograft (tumour volume, T/C ratio, statistical analysis); details: for Individual tumour volume: individual mice;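 for all read-outs here: subcutaneous Cov434-AMHRII Asc1a5 xenografts in female Swiss nude mice, tumour volume from length×width×height/2 in mm^3, randomized D13, dosing from D14, 8 mice per group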
Protocol: Female Swiss nude mice (Harlan Laboratories) were injected subcutaneously (s.c.) with 7.10^6 cells of Cov434-AMHRII Asc1a5 (cell line of human ovarian cancer transfected with cDNA AMHRII) in Matrigel (1:1 ratio) under a volume of 150 μL on day 0 (D0).
The mice were randomized on D13, when the volume of the tumours was between 58 and 150 mm^3, and the treatments began on D14 (8 mice per group).
The tumours were usually measured twice weekly. Tumour volume (TV) was calculated using the following formula, in which the length corresponds to the largest of the tumour diameters, the width corresponds to the smallest of the tumour diameters and the tumour height: TV (mm^3)=(length×width×height)/2.
In addition, for each group, curves of tumour growth were plotted using the calculated mean tumour volumes or the median tumour volumes.
as §1
In one experiment with 8 mice per group, the curves and analyses were stopped when fewer than 7 values per group had been obtained (7 mice alive).
The statistical differences between the different groups were analysed by ANOVA comparison using the Statgraphics centurion XV software.
The ANOVA table breaks down the variance into two components: an inter-group component and an intra-group component. The ratio F is the ratio of the inter-group estimate to the intra-group estimate. When the P value of test F is greater than or equal to 0.05, there is no statistically significant difference between the mean values of the two groups, with a confidence level of 95%. P values less than 0.05 indicate a significant difference between the mean values of the two groups with a confidence level of 95%.
A Kruskal-Wallis test was also carried out. When the P value is greater than or equal to 0.05, there is no statistically significant difference between the median of the two groups, with a confidence level of 95%. P values less than 0.05 indicate a significant difference between the medians of the two groups with a confidence level of 95%.
The treatment is initiated on day 14 after injection.

[3] = D13, contrast vs paclitaxel 15 mg/kg q7d4
[4] = D20, contrast vs paclitaxel 15 mg/kg q7d4
[5] = D24, contrast vs paclitaxel 15 mg/kg q7d4
[6] = D27, contrast vs paclitaxel 15 mg/kg q7d4
[7] = D31, contrast vs paclitaxel 15 mg/kg q7d4
[8] = D35, contrast vs paclitaxel 15 mg/kg q7d4
[9] = D41, contrast vs paclitaxel 15 mg/kg q7d4
[10] = Day 13, randomization, before treatment

**Q.** With “3C23K: mutated humanized 12G4 monoclonal antibody binding AMHR-II, produced by the 3C23K clone; light chain SEQ ID NO: 11, heavy chain SEQ ID NO: 13” as the substance, how does the “Survival parameter: logrank test chi-squared” value ([1]; contrast vs control) read?
**A.** 11.15

**Q.** And the “Survival parameter: logrank test chi-squared” value ([1]; contrast vs paclitaxel 15 mg/kg q7d4)?
**A.** 12.36

**Q.** And the “Survival parameter Mean” value ([1]; group of 8 mice)?
**A.** 70 days

**Q.** And the “Survival parameter Median” value ([1]; group of 8 mice)?
**A.** 73 days

**Q.** And the “Observations: End of experiment TV” value ([1]; individual mice alive at day 83)?
**A.** 1615 mm3 and 1463 mm3

**Q.** What about the Observations ([1]; individual mice alive at day 83, end of experiment) of the same substance?
**A.** End of experiment no

**Q.** And the “survival parameter” value ([1]; individual mice, experiment ended on day 83)?
**A.** 51 Days and 55 Days and 62 Days and 69 Days and 76 Days and 83 Days (3×)

**Q.** What about the “Statistical analysis based on the survival parameter (in words)” value ([1]; mouse, in vivo) of the same substance?
**A.** significant anti-tumour activity; also recorded: significantly different from that of paclitaxel in monotherapy

**Q.** What about the “ANOVA F-ratio” value ([2]; D13, contrast vs control) of the same substance?
**A.** 0.00

**Q.** What about the “Kruskal-Wallis Test” value ([2]; D13, contrast vs control) of the same substance?
**A.** 0.00

**Q.** What about the “ANOVA F-ratio” value [2, 3] of the same substance?
**A.** 0.11

**Q.** What about the “Kruskal-Wallis Test” value [2, 3] of the same substance?
**A.** 0.03

**Q.** And the “ANOVA F-ratio” value ([2]; D20, contrast vs control)?
**A.** 5.33

**Q.** What about the “Kruskal-Wallis Test” value ([2]; D20, contrast vs control) of the same substance?
**A.** 4.44

**Q.** And the “ANOVA F-ratio” value [2, 4]?
**A.** 9.54

**Q.** What about the “Kruskal-Wallis Test” value [2, 4] of the same substance?
**A.** 6.39

**Q.** What about the “Statistical analysis of tumour volume (in words)” value ([2]; D20 to D41) of the same substance?
**A.** significant anti-tumour activity; also recorded: significantly different from that of paclitaxel in monotherapy

**Q.** And the “ANOVA F-ratio” value ([2]; D24, contrast vs control)?
**A.** 9.83

**Q.** And the “Kruskal-Wallis Test” value ([2]; D24, contrast vs control)?
**A.** 4.41

**Q.** And the “ANOVA F-ratio” value [2, 5]?
**A.** 8.53

**Q.** What about the “Kruskal-Wallis Test” value [2, 5] of the same substance?
**A.** 8.70

**Q.** What about the “ANOVA F-ratio” value ([2]; D27, contrast vs control) of the same substance?
**A.** 8.21

**Q.** And the “Kruskal-Wallis Test” value ([2]; D27, contrast vs control)?
**A.** 4.87

**Q.** And the “ANOVA F-ratio” value [2, 6]?
**A.** 8.92

**Q.** What about the “Kruskal-Wallis Test” value [2, 6] of the same substance?
**A.** 8.66

**Q.** What about the “ANOVA F-ratio” value ([2]; D31, contrast vs control) of the same substance?
**A.** 10.00

**Q.** What about the “Kruskal-Wallis Test” value ([2]; D31, contrast vs control) of the same substance?
**A.** 4.86

**Q.** And the “ANOVA F-ratio” value [2, 7]?
**A.** 8.01

**Q.** What about the “Kruskal-Wallis Test” value [2, 7] of the same substance?
**A.** 8.66

**Q.** And the “ANOVA F-ratio” value ([2]; D35, contrast vs control)?
**A.** 8.26

**Q.** What about the “Kruskal-Wallis Test” value ([2]; D35, contrast vs control) of the same substance?
**A.** 5.11

**Q.** What about the “ANOVA F-ratio” value [2, 8] of the same substance?
**A.** 10.47

**Q.** And the “Kruskal-Wallis Test” value [2, 8]?
**A.** 8.65

**Q.** What about the “ANOVA F-ratio” value ([2]; D41, contrast vs control) of the same substance?
**A.** 11.82

**Q.** And the “Kruskal-Wallis Test” value ([2]; D41, contrast vs control)?
**A.** 5.36

**Q.** And the “ANOVA F-ratio” value [2, 9]?
**A.** 12.64

**Q.** And the “Kruskal-Wallis Test” value [2, 9]?
**A.** 7.71

**Q.** What about the Mean tumour volume [2, 10] of the same substance?
**A.** 92 mm^3

**Q.** And the Median tumour volume [2, 10]?
**A.** 89 mm^3

**Q.** And the Individual tumour volume ([2]; Day 13)?
**A.** 144 mm3 and 98 mm3 (2×) and 90 mm3 and 76 mm3 and 73 mm3

**Q.** And the Mean tumour volume ([2]; Day 20)?
**A.** 111 mm^3

**Q.** And the Median tumour volume ([2]; Day 20)?
**A.** 107 mm^3

**Q.** What about the Individual tumour volume ([2]; Day 20) of the same substance?
**A.** 105 mm3 and 135 mm3 and 88 mm3 and 140 mm3 and 150 mm3 and 60 mm3

**Q.** And the Mean tumour volume ([2]; Day 24)?
**A.** 97 mm^3

**Q.** And the Median tumour volume ([2]; Day 24)?
**A.** 93 mm^3

**Q.** What about the Individual tumour volume ([2]; Day 24) of the same substance?
**A.** 158 mm3 and 180 mm3 and 0 mm3 and 102 mm3 and 114 mm3 and 68 mm3

**Q.** And the Mean tumour volume ([2]; Day 27)?
**A.** 144 mm^3

**Q.** What about the Median tumour volume ([2]; Day 27) of the same substance?
**A.** 129 mm^3

**Q.** What about the Individual tumour volume ([2]; Day 27) of the same substance?
**A.** 252 mm3 and 289 mm3 and 0 mm3 and 192 mm3 and 168 mm3 and 72 mm3

**Q.** What about the Mean tumour volume ([2]; Day 31) of the same substance?
**A.** 153 mm^3

**Q.** What about the Median tumour volume ([2]; Day 31) of the same substance?
**A.** 162 mm^3

**Q.** And the Individual tumour volume ([2]; Day 31)?
**A.** 184 mm3 and 404 mm3 and 0 mm3 and 204 mm3 and 198 mm3 and 68 mm3

**Q.** What about the Mean tumour volume ([2]; Day 35) of the same substance?
**A.** 310 mm^3

**Q.** What about the Median tumour volume ([2]; Day 35) of the same substance?
**A.** 317 mm^3

**Q.** What about the Individual tumour volume ([2]; Day 35) of the same substance?
**A.** 366 mm3 and 592 mm3 and 0 mm3 and 488 mm3 and 528 mm3 and 122 mm3

**Q.** And the Mean tumour volume ([2]; Day 41)?
**A.** 429 mm^3

**Q.** And the Median tumour volume ([2]; Day 41)?
**A.** 467 mm^3

**Q.** What about the Individual tumour volume ([2]; Day 41) of the same substance?
**A.** 560 mm3 and 844 mm3 and 0 mm3 and 540 mm3 and 634 mm3 and 293 mm3

**Q.** And the Mean tumour volume ([2]; Day 45)?
**A.** 577 mm^3

**Q.** And the Median tumour volume ([2]; Day 45)?
**A.** 577 mm^3

**Q.** What about the Individual tumour volume ([2]; Day 45) of the same substance?
**A.** 918 mm3 and 1256 mm3 and 0 mm3 and 624 mm3 and 731 mm3 and 392 mm3

**Q.** What about the Mean tumour volume ([2]; Day 48) of the same substance?
**A.** 664 mm^3

**Q.** What about the Median tumour volume ([2]; Day 48) of the same substance?
**A.** 620 mm^3

**Q.** What about the Individual tumour volume ([2]; Day 48) of the same substance?
**A.** 912 mm3 and 1672 mm3 and 0 mm3 and 551 mm3 and 833 mm3 and 381 mm3 and 689 mm3

**Q.** What about the Mean tumour volume ([2]; Day 51) of the same substance?
**A.** 832 mm^3

**Q.** What about the Median tumour volume ([2]; Day 51) of the same substance?
**A.** 712 mm^3

**Q.** What about the Individual tumour volume ([2]; Day 51) of the same substance?
**A.** 1485 mm3 and 2035 mm3 and 0 mm3 and 587 mm3 and 900 mm3 and 462 mm3 and 837 mm3

**Q.** And the Individual tumour volume ([2]; Day 55)?
**A.** 2080 mm3 and 0 mm3 and 990 mm3 and 1084 mm3 and 600 mm3 and 1309 mm3

**Q.** What about the Individual tumour volume ([2]; Day 58) of the same substance?
**A.** 0 mm3 and 1482 mm3 and 1350 mm3 and 842 mm3 and 1665 mm3

**Q.** And the Individual tumour volume ([2]; Day 62)?
**A.** 0 mm3 and 1080 mm3 and 1440 mm3 and 640 mm3 and 2057 mm3

**Q.** What about the Individual tumour volume ([2]; Day 66) of the same substance?
**A.** 0 mm3 and 1695 mm3 and 1512 mm3 and 666 mm3

**Q.** And the Individual tumour volume ([2]; Day 69)?
**A.** 0 mm3 and 1788 mm3 and 1496 mm3 and 950 mm3

**Q.** What about the Individual tumour volume ([2]; Day 73) of the same substance?
**A.** 0 mm3 and 1820 mm3 and 1559 mm3 and 1018 mm3

**Q.** What about the Individual tumour volume ([2]; Day 76) of the same substance?
**A.** 0 mm3 and 2296 mm3 and 1238 mm3 and 1140 mm3

**Q.** And the Individual tumour volume ([2]; Day 80)?
**A.** 0 mm3 and 1520 mm3 and 1254 mm3

**Q.** And the Individual tumour volume ([2]; Day 83)?
**A.** 0 mm3 and 1615 mm3 and 1463 mm3

**Q.** What about the “Anti-tumour activity (in words)” value ([2]; paclitaxel study) of the same substance?
**A.** significant anti-tumour activity; also recorded: anti-tumour effect greater than that of paclitaxel

**Q.** And the T/C ratio ([2]; relative to control group, Day 13 (before treatment))?
**A.** 95%

**Q.** What about the T/C ratio ([2]; relative to control group, Day 20) of the same substance?
**A.** 57%

**Q.** And the T/C ratio ([2]; relative to control group, Day 24)?
**A.** 28%

**Q.** What about the T/C ratio ([2]; relative to control group, Day 27) of the same substance?
**A.** 25%

**Q.** And the T/C ratio ([2]; relative to control group, Day 31)?
**A.** 21%

**Q.** And the T/C ratio ([2]; relative to control group, Day 35)?
**A.** 27%

**Q.** And the T/C ratio ([2]; relative to control group, Day 41)?
**A.** 29%

**Q.** What about the T/C ratio ([2]; relative to control, after D20 up to D41 (b191 prints D40)) of the same substance?
**A.** less than 29%

**Q.** What about the T/C ratio ([2]; relative to paclitaxel group, Day 13 (before treatment)) of the same substance?
**A.** 98%

**Q.** What about the T/C ratio ([2]; relative to paclitaxel group, Day 20) of the same substance?
**A.** 47%

**Q.** What about the T/C ratio ([2]; relative to paclitaxel group, Day 24) of the same substance?
**A.** 35%

**Q.** And the T/C ratio ([2]; relative to paclitaxel group, Day 27)?
**A.** 38%

**Q.** And the T/C ratio ([2]; relative to paclitaxel group, Day 31)?
**A.** 39%

**Q.** And the T/C ratio ([2]; relative to paclitaxel group, Day 35)?
**A.** 32%
